# Entries after “also recorded” stand apart in the source; their conditions may differ. Where a SMILES comes first, the peptide text is derived from it.
# Legend:
# [1] = test system: Salmonella typhimurium, Escherichia coli, and Pseudomonas aeruginosa; conditions: Gram negative organisms; cited from earlier work
# [2] = test system: E. coli lipopolysaccharide (LPS); conditions: conscious rat; cited from earlier work
# C. glabrata = test: In vitro candidacidal assay, C. glabrata; assay type: cell-based; conditions: one isolate of three; 400 μg/ml (150 μM)
# Procedure: (§1) Isolates used in this study included Candida albicans (ATCC 28367), three fluconazole sensitive mucosal isolates of C. albicans, designated A-22, A-111 and A-155, three fluconazole resistant mucosal isolates of C. albicans designated A-46, A-5, and A-20, and a blood isolate of C. albicans designated WDO. Isolates were stored frozen at −70° C. and streaked onto Sabouraud Dextrose Agar (Sigma, St. Louis, Mo.) plates and maintained on plates at 4° C., with subculturing onto new plates approximately every 10 days for the duration of the studies. Fluconazole resistance was evaluated. Three clinical isolates of C. glabrata, two clinical isolates of C. dubliniensis, and single isolate each of C. krusei, C. guilliermondii, C. parapsilosis, C. pseudotropicalis and C. tropicalis and two isolates of Saccharomyces cerevisiae were also used in this study and were maintained on Sabouraud Dextrose agar plates at 4° C. A single yeast colony was cultured overnight at 33° C. in 1% phytone peptone broth (Becton Dickinson, Sparks Md.) with 0.1% D-glucose (Sigma).
# (§2) Stock solutions of all peptides were made up at concentrations of 1 mg/ml in sterile endotoxin-free water for irrigation (Baxter, Deerfield, Ill.). Subsequent dilutions were all made in tryptone saline pH 5.5 (Shafer et al., Infect Immun, 1984). […] The optical density was read and the culture adjusted to 500 blastospores/100 μl in tryptone saline pH 5.5 (Shafer et al., Infect Immun, 1984). […] The colony forming units (cfu) were counted and the fungicidal activity was expressed as percent killed and calculated according to the following equation: [(control cfu−test cfu)/control cfu]×100=% killed. […] Test cfu is determined by counting the number of colonies present after incubation in tryptone saline containing the peptide. […]
# C. tropicalis = test: In vitro candidacidal assay, C. tropicalis; assay type: cell-based; conditions: 400 μg/ml (150 μM)
# Procedure: as §1, §2
# C. dubliniensis = test: In vitro candidacidal assay, C. dubliniensis; assay type: cell-based; conditions: two isolates; 400 μg/ml (150 μM)
# Procedure: as §1, §2
# [3] = test system: C. albicans (fluconazole sensitive isolate); test: FUN-1 vital dye yeast viability, confocal microscopy, C. albicans; assay type: cell-based, Candida albicans; conditions: 400 μg/ml, 37° C. for 2 hr
# Procedure: Yeast viability was also assessed using the FUN-1 Live/Dead Yeast Viability Kit (Molecular Probes, Eugene, Oreg.). The methodology employed was essentially according to the protocol provided by the vendor for use with fluorescent microscopy. Briefly, yeast cultures were prepared exactly as stated above. C. glabrata, C. pseudotropicalis, C. albicans (fluconazole sensitive isolate) and S. cerevisiae (5×10^5 cfu in 100 μl of tryptone saline) were incubated (37° C. for 2 hr) in the absence or presence of peptide (CAP37(20-44)nat and CAP37(20-44)ser26/42) at a final concentration of 400 μg/ml. At the end of the incubation period, the samples were transferred to microcentrifuge tubes and centrifuged (10,000×g for 3 min at room temperature). The supernatant was removed and the pellet resuspended in 25 μl of GH solution (2% D-glucose containing 10 mM Na-HEPES, pH 7.2) as described in the technical data sheet provided by the vendor. A working solution of the FUN-1 reagent (100 μl of 10 μM) was prepared from 10 mM stock solution and 25 μl (final concentration 5 μM) added to the yeast and incubated at room temperature for 30 min. A sample (10 μl) was placed on a microscope slide and staining observed under a Leica TCS NT confocal microscope using Ar-488 and Kr-568 Lasers and 63x Plan APO 1.2 NA water immersion objective. Images were scanned and analyzed using the Leica TCS software.
# Candida albicans = assay type: cell-based
# Procedure: as §1
# Stock solutions of all peptides were made up at concentrations of 1 mg/ml in sterile endotoxin-free water for irrigation (Baxter, Deerfield, Ill.). Subsequent dilutions were all made in tryptone saline pH 5.5 (Shafer et al., Infect Immun, 1984). An aliquot (100 μl) of an overnight culture of a single colony grown at 33° C. in 1% phytone peptone broth with 0.1% glucose was subcultured in 5 ml of 1% phytone peptone broth with 0.1% glucose and incubated in a shaking water bath (80 oscillations per min, Precision, Winchester, Va.) for 90 min at 33° C. to yield a logarithmic culture. […] The optical density was read and the culture adjusted to 500 blastospores/100 μl in tryptone saline pH 5.5 (Shafer et al., Infect Immun, 1984). To 100 μl of the organism suspension in a 96 well sterile polystyrene microtiter plate (Becton Dickinson, Franklin Lakes, N.J.) was added 100 μl of the peptide (final concentrations 400 μg/ml and 200 μg/ml) or 100 μl of tryptone saline. The latter served as a control. The microtiter plate was incubated at 37° C. for 4 hr and 100 μl of the contents from each well was plated on Sabouraud Dextrose agar plates and incubated at 37° C. overnight. The colony forming units (cfu) were counted and the fungicidal activity was expressed as percent killed and calculated according to the following equation: [(control cfu−test cfu)/control cfu]×100=% killed. Control cfu is indicated by the number of colonies present after […] of incubation in tryptone saline alone in the absence of peptide. Test cfu is determined by counting the number of colonies present after incubation in tryptone saline containing the peptide. Each experimental point was performed in triplicate.
# C. albicans (ATCC 28367) was used to standardize the in vitro killing assay. We explored the optimal growth conditions (temperature and time, 25° C. for 5 h and 33° C. for 90 min), numbers of blastospores per well (200, 400, 500, 600, 800, and 1000 cfu), range of peptide concentrations (750, 500, 400, 200 and 100 μg/ml) and the contact time between peptide and Candida (1, 2 and 4 hr) for killing to occur. […] The 90 minute incubation was more convenient technically and was therefore employed routinely. The optimum numbers of cfu per well was determined to be 500 and an incubation time of 4 hr at 37° C. between Candida and peptide was required to obtain optimal killing.
smiles,measurement,setting,value
"CC[C@H](C)[C@H](NC(=O)[C@H](CC(C)C)NC(=O)[C@H](C)NC(=O)CNC(=O)CNC(=O)[C@H](CS)NC(=O)[C@H](Cc1ccccc1)NC(=O)[C@H](Cc1c[nH]cn1)NC(=O)[C@H](CCCNC(=N)N)NC(=O)CNC(=O)[C@H](CCC(N)=O)NC(=O)[C@@H](N)CC(N)=O)C(=O)N[C@@H](Cc1c[nH]cn1)C(=O)N[C@@H](C)C(=O)N[C@@H](CCCNC(=N)N)C(=O)N[C@@H](Cc1ccccc1)C(=O)N[C@H](C(=O)N[C@@H](CCSC)C(=O)N[C@H](C(=O)N[C@@H](C)C(=O)N[C@@H](C)C(=O)N[C@@H](CO)C(=O)N[C@@H](CS)C(=O)N[C@@H](Cc1ccccc1)C(=O)N[C@@H](CCC(N)=O)C(=O)O)[C@@H](C)O)C(C)C [CAP37(20-44)nat, NQGRHFCGGALIHARFVMTAASCFQ] (H-NQGRHFCGGALIHARFVMTAASCFQ-OH; N-terminus and C-terminus assumed)",bactericidal activity,[1],potent bactericidal activity; also recorded: mimicked the antimicrobial activity of the native molecule
same,efficacy against lethal effects of LPS,[2],attenuating the lethal effects
same,activity against C. glabrata,C. glabrata,"effective against both isolates of C. dubliniensis and one isolate of C. glabrata, although to a lesser extent"
same,activity against C. tropicalis,C. tropicalis,killed
same,activity against C. dubliniensis,C. dubliniensis,"effective against both isolates of C. dubliniensis and one isolate of C. glabrata, although to a lesser extent"
same,blastoconidia stained green or green-yellow (dead),[3],70-80%
same,killing,Candida albicans,> 75%
same,killing with varying peptide concentrations,"Candida albicans; C. albicans ATCC 28367, 750, 500, 400, 200 and 100 μg/ml",Dose dependent killing
same,killing of blood isolate of Candida,"Candida albicans; blood isolate of C. albicans, 400 μg/ml (150 μM)",killed
same,peptide concentration required for activity,Candida albicans; fluconazole resistant isolate A-46,400 µg/mL
same,activity at the lower concentration,"Candida albicans; fluconazole resistant isolates A-5 and A-20, 200 μg/ml or 75 μM",significant activity
same,activity against C. albicans,Candida albicans; in vitro killing efficacy,significant activity
same,fungicidal or fungistatic effect,"Candida albicans; isolates A-5, A-20, A-46 and A-155, viable colony counts versus starting inoculum",fungicidal rather than fungistatic
same,activity against fluconazole resistant isolates,Candida albicans; isolates A-5 and A-20,highly active
same,activity against fluconazole sensitive isolates,"Candida albicans; isolates A-155, A-22 and A-111, 400 μg/ml",strongly active

# From patent publication US7745401B2, “Antifungal peptides and methods of use thereof” (The Board of Regents of the University of Oklahoma, priority 2005, dated 2010)
